Source: ChEMBL document CHEMBL1629679, “Extended-spectrum cephalosporinases in Pseudomonas aeruginosa” (2009)

Legend:
[1] = tested on: Pseudomonas aeruginosa; assay: Antimicrobial activity against AmpC overproducing Pseudomonas aeruginosa isolate Pae-beta-03 with PDC-2 variant by Etest; format: functional
[2] = tested on: Pseudomonas aeruginosa; assay: Antimicrobial activity against AmpC overproducing Pseudomonas aeruginosa isolate Pae-beta-04 with PDC-2 variant by Etest; format: functional
[3] = tested on: Pseudomonas aeruginosa; assay: Antimicrobial activity against Pseudomonas aeruginosa isolate Pae-beta-05 with PDC-2 variant by Etest; format: functional
[4] = tested on: Pseudomonas aeruginosa; assay: Antimicrobial activity against AmpC overproducing Pseudomonas aeruginosa isolate Pae-beta-06 with PDC-2 variant by Etest; format: functional
[5] = tested on: Pseudomonas aeruginosa; assay: Antimicrobial activity against AmpC overproducing Pseudomonas aeruginosa isolate Pae-beta-07 with PDC-2 variant by Etest; format: functional
[6] = tested on: Pseudomonas aeruginosa; assay: Antimicrobial activity against AmpC overproducing Pseudomonas aeruginosa isolate Pae-beta-08 with PDC-2 variant by Etest; format: functional
[7] = tested on: Pseudomonas aeruginosa; assay: Antimicrobial activity against AmpC overproducing Pseudomonas aeruginosa isolate Pae-beta-09 with PDC-2 variant by Etest; format: functional
[8] = tested on: Pseudomonas aeruginosa; assay: Antimicrobial activity against AmpC overproducing Pseudomonas aeruginosa isolate Pae-beta-10 with PDC-2 variant by Etest; format: functional
[9] = tested on: Pseudomonas aeruginosa; assay: Antimicrobial activity against AmpC overproducing Pseudomonas aeruginosa isolate Pae-beta-11 with PDC-2 variant by Etest; format: functional
[10] = tested on: Pseudomonas aeruginosa; assay: Antimicrobial activity against AmpC overproducing Pseudomonas aeruginosa isolate Pae-beta-12 with PDC-2 variant by Etest; format: functional
[11] = tested on: Pseudomonas aeruginosa; assay: Antimicrobial activity against AmpC overproducing Pseudomonas aeruginosa isolate Pae-beta-13 with PDC-2 variant by Etest; format: functional
[12] = tested on: Pseudomonas aeruginosa; assay: Antimicrobial activity against AmpC overproducing Pseudomonas aeruginosa isolate Pae-beta-14 with PDC-2 variant by Etest; format: functional
[13] = tested on: Pseudomonas aeruginosa; assay: Antimicrobial activity against AmpC overproducing Pseudomonas aeruginosa isolate Pae-beta-15 with PDC-2 variant by Etest; format: functional
[14] = tested on: Pseudomonas aeruginosa; assay: Antimicrobial activity against AmpC overproducing Pseudomonas aeruginosa isolate Pae-beta-16 with PDC-3 variant by Etest; format: functional
[15] = tested on: Pseudomonas aeruginosa; assay: Antimicrobial activity against AmpC overproducing Pseudomonas aeruginosa isolate Pae-beta-17 with PDC-3 variant by Etest; format: functional
[16] = tested on: Pseudomonas aeruginosa; assay: Antimicrobial activity against AmpC overproducing Pseudomonas aeruginosa isolate Pae-beta-18 with PDC-3 variant by Etest; format: functional
[17] = tested on: Pseudomonas aeruginosa; assay: Antimicrobial activity against AmpC overproducing Pseudomonas aeruginosa isolate Pae-beta-20 with PDC-4 variant by Etest; format: functional
[18] = tested on: Pseudomonas aeruginosa; assay: Antimicrobial activity against AmpC overproducing Pseudomonas aeruginosa isolate Pae-beta-21 with PDC-4 variant by Etest; format: functional
[19] = tested on: Pseudomonas aeruginosa; assay: Antimicrobial activity against AmpC overproducing Pseudomonas aeruginosa isolate Pae-beta-22 with PDC-4 variant by Etest; format: functional
[20] = tested on: Pseudomonas aeruginosa; assay: Antimicrobial activity against AmpC overproducing Pseudomonas aeruginosa isolate Pae-beta-23 with PDC-5 variant by Etest; format: functional
[21] = tested on: Pseudomonas aeruginosa; assay: Antimicrobial activity against AmpC overproducing Pseudomonas aeruginosa isolate Pae-beta-24 with PDC-5 variant by Etest; format: functional
[22] = tested on: Pseudomonas aeruginosa; assay: Antimicrobial activity against AmpC overproducing Pseudomonas aeruginosa isolate Pae-beta-25 with PDC-6 variant by Etest; format: functional
[23] = tested on: Pseudomonas aeruginosa; assay: Antimicrobial activity against AmpC overproducing Pseudomonas aeruginosa isolate Pae-beta-27 with PDC-7 variant by Etest; format: functional
[24] = tested on: Pseudomonas aeruginosa; assay: Antimicrobial activity against AmpC overproducing Pseudomonas aeruginosa isolate Pae-beta-28 with PDC-7 variant by Etest; format: functional
[25] = tested on: Pseudomonas aeruginosa; assay: Antimicrobial activity against Pseudomonas aeruginosa isolate Pae-beta-29 with PDC-8 variant by Etest; format: functional
[26] = tested on: Pseudomonas aeruginosa; assay: Antimicrobial activity against Pseudomonas aeruginosa isolate Pae-beta-30 with PDC-8 variant by Etest; format: functional
[27] = tested on: Pseudomonas aeruginosa; assay: Antimicrobial activity against Pseudomonas aeruginosa isolate Pae-beta-31 with PDC-9 variant by Etest; format: functional
[28] = tested on: Pseudomonas aeruginosa; assay: Antimicrobial activity against AmpC overproducing Pseudomonas aeruginosa isolate Pae-beta-32 with PDC-10 variant by Etest; format: functional
[29] = tested on: Pseudomonas aeruginosa; assay: microbe, parasite or virus in culture; format: functional; details: KG2505a
[30] = tested on: Pseudomonas aeruginosa; assay: microbe, parasite or virus in culture; format: functional; details: KG2505a; remark: listed apart in the source
[31] = tested on: Pseudomonas aeruginosa; assay: microbe, parasite or virus in culture; format: functional; details: KG2505a; remark: listed apart in the source
[32] = tested on: Pseudomonas aeruginosa; assay: microbe, parasite or virus in culture; format: functional; details: KG2505a; remark: listed apart in the source
[33] = tested on: Pseudomonas aeruginosa; assay: microbe, parasite or virus in culture; format: functional; details: KG2505a; remark: listed apart in the source
[34] = tested on: Pseudomonas aeruginosa; assay: microbe, parasite or virus in culture; format: functional; details: 12B
[35] = tested on: Pseudomonas aeruginosa; assay: microbe, parasite or virus in culture; details: PAO1
[36] = tested on: Pseudomonas aeruginosa; assay: microbe, parasite or virus in culture; details: 12B
[37] = tested on: Pseudomonas aeruginosa; assay: microbe, parasite or virus in culture; details: 12B; remark: listed apart in the source
[38] = tested on: Pseudomonas aeruginosa; assay: microbe, parasite or virus in culture; details: 12B; remark: listed apart in the source
[39] = tested on: Pseudomonas aeruginosa; assay: microbe, parasite or virus in culture; details: 12B; remark: listed apart in the source
[40] = tested on: Pseudomonas aeruginosa; assay: Antimicrobial activity against Pseudomonas aeruginosa isolate Pae-beta-01 with PDC-1 variant by Etest; format: functional
[41] = tested on: Pseudomonas aeruginosa; assay: Antimicrobial activity against Pseudomonas aeruginosa isolate Pae-beta-02 with PDC-1 variant by Etest; format: functional
[42] = tested on: Pseudomonas aeruginosa; assay: Antimicrobial activity against Pseudomonas aeruginosa isolate Pae-beta-19 with PDC-3 variant by Etest; format: functional
[43] = tested on: Pseudomonas aeruginosa; assay: microbe, parasite or virus in culture; details: isolate Pae-beta-26

Measured: MIC

C[C@@H](O)[C@H]1C(=O)N2C(C(=O)O)=C(SCCNC=N)C[C@H]12 [IMIPENEM ANHYDROUS]
64 µg/mL: [16] | [28]
32 µg/mL: [14] | [15] | [20] | [21] | [23]
8 µg/mL: [19] | [22] | [26]
not listed: [29] | [30] | [31] | [32] | [33] | [34] | [35] | [36] | [37] | [38] | [39] | [40] | [41] | [42] | [43]
16 µg/mL: all other assays above

CO/N=C(\C(=O)N[C@@H]1C(=O)N2C(C(=O)[O-])=C(C[N+]3(C)CCCC3)CS[C@H]12)c1csc(N)n1
64 µg/mL: [1] | [21] | [23]
8 µg/mL: [26]
1 µg/mL: [29]
16 µg/mL: [3] | [11] | [17] | [19] | [24] | [30] | [32]
2 µg/mL: [35]
128 µg/mL: [13] | [16]
4 µg/mL: [31] | [33] | [34]
not listed: [25] | [38] | [39] | [40] | [41] | [42] | [43]
32 µg/mL: all other assays above

C[C@@H](O)[C@H]1C(=O)N2C(C(=O)O)=C(S[C@@H]3CN[C@H](C(=O)N(C)C)C3)[C@H](C)[C@H]12 [MEROPENEM]
2 µg/mL: [36] | [38] | [37] | [39]
0.25 µg/mL: [30] | [31] | [32] | [33]
0.12 µg/mL: [29]
1 µg/mL: [34]

CC(C)(O/N=C(\C(=O)N[C@@H]1C(=O)N2C(C(=O)[O-])=C(C[n+]3ccccc3)CS[C@H]12)c1csc(N)n1)C(=O)O [CEFTAZIDIME]
128 µg/mL: [16]
4 µg/mL: [11] | [29]
8 µg/mL: [40] | [41] | [42] | [17] | [25] | [26] | [34]
1 µg/mL: [35]
32 µg/mL: [2] | [3] | [13] | [14] | [18] | [22] | [27] | [28] | [31] | [33] | [43] | [36] | [38] | [39]
64 µg/mL: [15] | [20] | [21] | [37]
16 µg/mL: all other assays above
